Source: ChEMBL document CHEMBL4002613, “Shape-based virtual screening, synthesis and evaluation of novel pyrrolone derivatives as antiviral agents against HCV” (Bioorg Med Chem Lett, 2017)

What was measured:
[1] = (§1) Cytotoxicity against human HuH5.2 cells assessed as anti-metabolic effect after 72 hrs by MTT assay; type: ADME, cell-based, Huh-5-2; conditions: HuH5.2 (Huh-5-2) cells
Hepatitis C virus = experiment: Antiviral activity against Hepatitis C virus genotype 1b infected in human HuH5.2 cells after 72 hrs by luciferase reporter gene assay; type: functional, cell-based, Hepacivirus hominis
[2] = Selectivity index, ratio of CC50 for human HuH5.2 cells to EC50 for Hepatitis C virus genotype 1b infected in human HuH5.2 cells; type: toxicity, cell-based; conditions: for selectivity ratio: HuH5.2 cells, read-out: Ratio CC50/EC50
[3] = Inhibition of Hepatitis C virus genotype 1b NS3 helicase unwinding activity using fluorescent DNA substrate by molecular beacon assay; design: species or system Hepatitis C virus subtype 1b
Huh-5-2 = experiment: as §1; type: ADME, cell-based; conditions: huh-5-2, 72 h, 72 h
[4] = Inhibition of Hepatitis C virus genotype 1b Con1 NS3 helicase ATP hydrolysis activity using ATP as substrate in presence of poly U RNA; design: species or system Hepatitis C virus (isolate Con1)
[5] = Hepatitis C virus, genotype 1b, Huh-5-2, 72 h

Structure (SMILES): COc1ccc(/C=C2/C=C(c3ccccc3)N(c3ccccc3)C2=O)cc1
- CC50 at 72 h [1]: 97.2 µM
- EC50 (Hepatitis C virus; [5]): 5.9 µM
- EC90 (Hepatitis C virus; [5]): 21.6 µM
- selectivity ratio [2]: 18
- IC50 [3]: 438 µM

Structure (SMILES): O=C1/C(=C\c2ccccc2)C=C(c2ccccc2)N1c1ccccc1
- CC50 at 72 h [1]: 30.3 µM
- EC50 (Hepatitis C virus; [5]): 4.7 µM
- EC90 (Hepatitis C virus; [5]): 14 µM
- selectivity ratio [2]: 6.4
- IC50 [3]: > 1000 µM

Structure (SMILES): CCOC(=O)c1ccc(/C=C2/C=C(c3ccccc3)N(c3ccc(C)cc3C)C2=O)cc1
- CC50 at 72 h [1]: 47 to 90.8 µM
- EC50 (Hepatitis C virus; [5]): 0.8 to 43.1 µM
- selectivity ratio [2]: 2.1 to 58.8
- IC50 [3]: > 1000 µM

Structure (SMILES): O=C1/C(=C\c2ccc(Br)cc2)C=C(c2ccccc2)N1c1ccccc1
- CC50 at 72 h [1]: 25.7 µM
- EC50 (Hepatitis C virus; [5]): 4.3 µM
- EC90 (Hepatitis C virus; [5]): 11.6 µM
- selectivity ratio [2]: 6
- IC50 [3]: > 1000 µM

Structure (SMILES): CCOC(=O)c1ccc(/C=C2\C=C(c3ccccc3)N(c3ccc(C)cc3Br)C2=O)cc1 (stereo in doubt; form 2)
- CC50 (Huh-5-2): > 205 µM
- EC50 (Hepatitis C virus): 20.3 µM
- EC90 (Hepatitis C virus): 61.7 µM
- Ratio CC50/EC50 [2]: > 10
- IC50 [3]: > 1000 µM

Structure (SMILES): CCOC(=O)c1ccc(/C=C2/C=C(c3ccccc3)N(c3ccccc3)C2=O)cc1
- CC50 at 72 h [1]: 112 µM
- EC50 (Hepatitis C virus; [5]): 27.2 µM
- EC90 (Hepatitis C virus; [5]): 100 µM
- selectivity ratio [2]: 4
- IC50 [3]: > 1000 µM

Structure (SMILES): CN1CCN(Cc2c3c(c(CN4CCN(C)CC4)c4c2CCC4)CCC3)CC1
- CC50 at 72 h [1]: 36.9 µM
- EC50 (Hepatitis C virus; [5]): 7.7 µM
- selectivity ratio [2]: 4.8

Structure (SMILES): CCOC(=O)c1ccc(/C=C2/C=C(c3ccccc3)N(c3ccc(C)cc3)C2=O)cc1
- CC50 at 72 h [1]: > 244 µM
- EC50 (Hepatitis C virus; [5]): 22.5 µM
- EC90 (Hepatitis C virus; [5]): 81.1 µM
- selectivity ratio [2]: > 11
- IC50 [3]: > 1000 µM

Structure (SMILES): N=c1c(S(=O)(=O)c2ccc(Cl)cc2)cc2c(=O)n3ccccc3nc2n1CCN1CCOCC1
- CC50 at 72 h [1]: 151 µM
- EC50 (Hepatitis C virus; [5]): 28 µM
- EC90 (Hepatitis C virus; [5]): 97.6 µM
- selectivity ratio [2]: 5.4

Structure (SMILES): O=C(O)C1=CC(=C(c2ccc(O)c(C(=O)O)c2)c2ccc(O)c(C(=O)O)c2)C=CC1=O [AURINTRICARBOXYLIC ACID]
- IC50 [3]: 0.3 µM

Structure (SMILES): CN(C)c1ccc(/C=C2\C(=O)N(c3ncc(-c4ccc(Cl)cc4)s3)N=C2c2ccccc2)cc1
- CC50 at 72 h [1]: > 206 µM
- EC50 (Hepatitis C virus; [5]): 147 µM
- EC90 (Hepatitis C virus; [5]): > 206 µM
- selectivity ratio [2]: > 1.4

Structure (SMILES): Oc1c(CN2CCOCC2)cc(CN2CCOCC2)cc1CN1CCOCC1
- CC50 at 72 h [1]: > 255 µM
- EC50 (Hepatitis C virus; [5]): > 255 µM
- EC90 (Hepatitis C virus; [5]): > 255 µM

Structure (SMILES): CN1CCN(CC2=C(O)C(=O)N(CCc3ccccc3)C3C=CC=CN23)CC1 (configuration not stated)
- CC50 at 72 h [1]: > 264 µM
- EC50 (Hepatitis C virus; [5]): 235 µM
- EC90 (Hepatitis C virus; [5]): > 264 µM

Structure (SMILES): O=C1/C(=C\c2ccc(-c3ccccc3)cc2)C=C(c2ccccc2)N1c1ccccc1
- CC50 at 72 h [1]: 156 µM
- EC50 (Hepatitis C virus; [5]): 16.1 µM
- EC90 (Hepatitis C virus; [5]): 61.7 µM
- selectivity ratio [2]: 9.7
- IC50 [3]: > 1000 µM

Structure (SMILES): CCOC(=O)c1ccc(/C=C2\C=C(c3ccccc3)N(c3ccc(C)cc3Br)C2=O)cc1 (stereo in doubt; form 1)
- CC50 at 72 h [1]: 204 to 205 µM
- EC90 (Hepatitis C virus): 149 µM
- EC50 (Hepatitis C virus; [5]): 38 to 38.3 µM

Structure (SMILES): Cc1ccc(N2C(=O)/C(=C\c3ccccc3)C=C2c2ccccc2)c(Br)c1
- CC50 at 72 h [1]: > 240 µM
- EC50 (Hepatitis C virus; [5]): 4.1 µM
- EC90 (Hepatitis C virus; [5]): 12.4 µM
- IC50 [4]: 620 µM
- selectivity ratio [2]: > 58
- IC50 [3]: > 1000 µM

Structure (SMILES): Cc1ccc2nc(-c3ccc4nc(-c5ccc(N)cc5)sc4c3)sc2c1S(=O)(=O)O
- IC50 [3]: 10 µM
